One compound from US8563742B2, “Substituted aminothiazole derivatives, pharmaceutical compositions, and methods of use” (High Point Pharmaceuticals, LLC, priority 2008, dated 2013) can be followed below.

For series [1], the target named is T1, human MC-4R (Homo sapiens, UniProt P32245).
T1 construct: expressed in transfected cells
As to the kind of experiment: Biological Assay: inhibition of AgRP functional interaction with MC-4R in presence of αMSH (cAMP production). It is filed as cell-based. To be noted: HEK293 cells expressing human MC-4R, AgRP83-132 and αMSH present; read-out: Average EC50 (nM) in Biological Assay. A digest of the protocol: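 HEK293 cells stably expressing human MC-4R (20,000/well) in EBSS/HEPES pH 7.4 with 0.5 mM IBMX. Compounds preincubated 30 min at room temperature with human AgRP83-132, then cells added and stimulated with αMSH 30 min at 37 °C. Intracellular cAMP measured after lysis; inhibition of AgRP seen as increased cAMP.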

A short description of series [2]: Stability in Liver Microsomes (human). To be noted: 1 μM, 0.5 mg protein/mL, NADPH, 60 minutes, 37° C., pH 7.4. It counts as in vitro ADME. In a few lines: (§1)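 Compound at 1 μM final was incubated with liver microsomes (0.5 mg protein/mL) and NADPH in pH 7.4 phosphate buffer for 60 minutes at 37° C., in duplicate. Reactions were stopped with methanol and analysed by LC/MS. Results are given as percent parent remaining after 1 hour.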
In general terms: Microsomes from liver hold many membrane-bound enzymes, among them those of drug oxidation.

The nature of series [3]: Stability in Liver Microsomes (monkey). It is filed as in vitro ADME. To be noted: 1 μM, 0.5 mg protein/mL, NADPH, 60 minutes, 37° C., pH 7.4. A digest of the protocol:
as §1

Series [4] in a line: Stability in Liver Microsomes (dog). It counts as in vitro ADME. To be noted: 1 μM, 0.5 mg protein/mL, NADPH, 60 minutes, 37° C., pH 7.4. In a few lines:
as §1

Series [5] can be described thus: Stability in Liver Microsomes (rat). It is filed as in vitro ADME. The settings on record: 1 μM, 0.5 mg protein/mL, NADPH, 60 minutes, 37° C., pH 7.4. In a few lines:
as §1

The nature of series [6]: Stability in Liver Microsomes (mouse). The settings on record: 1 μM, 0.5 mg protein/mL, NADPH, 60 minutes, 37° C., pH 7.4. It counts as in vitro ADME. In a few lines:
as §1

Series [7] concerns OVX rats. As to the kind of experiment: Sexual Behavior, sub-chronic regimen in OVX rats. It is filed as in vivo, Rat. The settings on record: 30 mg/kg/day PO, 5 days. The procedure: Rats were ovariectomized (OVX) under ketamine/xylazine anesthesia with 8 rats per group. OVX rats were then administered estradiol benzoate (10 micrograms) 48 hours and progesterone (500 micrograms) 4 hours before five baseline tests of sexual behavior with sexually vigorous stud males. Tests were 30 minutes in duration and were conducted at 4-day intervals. All females developed normal rates of appetitive and consummatory sexual behavior. Following this baseline test phase, females were switched to an estrogen-alone baseline phase, during which they were administered estradiol benzoate (10 micrograms) 48 hours before tests of sexual behavior with sexually vigorous males. These tests were conducted at 14-day intervals, to assure low rates of appetitive responding (e.g., solicitations, hops and darts). After the second test, females were assigned randomly to 4 groups, a saline control, two doses of Example 7 antagonist (10 and 30 mg/kg, PO), and a positive control using melanotan II (MT-II) (1 mg/kg, SC). The saline control and Example 7 were gavaged daily for 5 days prior to the test. The MT-II control was injected acutely 5 min prior to the test. The test was recorded on video and scored by a technician blind to which drug the animals were receiving. Behaviors were subjected to one-way ANOVAs. For each significant effect, posthoc tests were conducted on the means using the Tukey method, P<0.05.

Series [8] relates to adult male Sprague Dawley rats. As to the kind of experiment: Feeding Study (icv AgRP, food intake and body weight). It counts as in vivo, Rat. How it is done:
27 adult male Sprague Dawley rats (Charles River Laboratories) were implanted with right lateral cerebral ventricular cannulas and allowed to recover for one week. After one week, animals were then randomized into 4 groups that were matched for food intake and body weight: water gavage-icv saline (n=6); Example 7 gavage-icv saline (n=7); water gavage-icv AgRP (n=7); Example 7 gavage-icv AgRP (n=7). Water or Example 7 (30 mg/kg) was administered at by oral gavage followed by icv injection of either saline or 0.2 nmol human AgRP 83-132. AgRP stimulated food intake and body weight gain over the next 24 h compared to saline controls. Both of these effects of AgRP were blocked by injection administration of Example 7.
On day 2 a second dose of Example 7 (30 mg/kg) or water was administered by oral gavage. On day 3, water or Example 7 (30 mg/kg) was administered for the third and final time by oral gavage followed by icv injection of either saline or 0.2 nmol human AgRP83-132. Food intake and body weight were monitored daily and animals were sacrificed on day 5.

Series [9] in a line: Pharmacokinetic screening in rats (plasma and brain). The settings on record: rat, 5 mg/kg PO.
Procedure: Pharmacokinetic screening in rats was performed on various compounds to measure brain to plasma ratio at 2 hour time point. […] The parameters for the pharmacokinetic protocol were as follows.
Amount of compound: 5 mg/kg
Species: Rat; Strain: Sprague Dawley; Sex: Male
Diet Status: Overnight fasting
Number of Animals (n) for each time point: 2
Formulation: 0.1% CMC, 0.25% Tween 80 in distilled water
Each formulation was administered once by oral gavage using a gavage needle (18G-3, BrainTree Scientific, INC, USA) attached to a syringe. The dose volume was 5 mL/kg for all animals. The actual volume administered to each animal was calculated and adjusted based on the most recent body weight.
Blood samples (approximately 300 μL whole blood) was collected from each animal via tail vein except for terminal blood samples. Terminal blood samples were collected via cardiac puncture. All samples were collected into tubes containing lithium heparin (Multivette 600 LH-Gel, Sarstedt, Newton, N.C., USA). Following collection, the tubes were placed in refrigerator (maximum 30 minutes) or until centrifugation under refrigeration (at 2 to 8° C.) at 5000 g for 7 minutes. Each harvested plasma sample was then transferred into 1.2 mL polypropylene tubes, on the 96-Well Plate according to the 96-Well Plate plasma sample map and kept in freezer. Plasma samples were then analyzed for test substances.
Brain samples were collected immediately after the rats were euthanised at designated time points. Brain samples were rinsed with saline, blotted dry, and weighed. Brain samples were placed into individual containers and kept in freezer (−20° C.). Brain samples were then analyzed for test articles.
After analysis, all the plasma results were reported as ng/mL and brain sample results are reported as ng/g.
[10] abbreviates: 30 mg/kg oral gavage + icv saline compared to water + icv saline.
Where [11] appears, read: 30 mg/kg oral gavage, icv 0.2 nmol human AgRP 83-132, 24 h.

T1 sequence (P32245 whole entry): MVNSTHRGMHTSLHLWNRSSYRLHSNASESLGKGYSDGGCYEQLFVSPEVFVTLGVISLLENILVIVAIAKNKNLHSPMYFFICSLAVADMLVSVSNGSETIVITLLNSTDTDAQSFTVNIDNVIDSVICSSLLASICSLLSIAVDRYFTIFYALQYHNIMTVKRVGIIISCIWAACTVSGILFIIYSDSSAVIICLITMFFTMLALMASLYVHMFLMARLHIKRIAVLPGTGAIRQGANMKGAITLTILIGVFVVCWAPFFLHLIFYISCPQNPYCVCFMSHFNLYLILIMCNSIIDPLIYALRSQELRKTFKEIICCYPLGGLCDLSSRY

By EC50 is commonly meant the concentration needed to bring the measured effect to its halfway point. As to `Cc1ccc(CN(CCC(=O)[O-])c2nc([C@H]3CC[C@H](C(C)(C)C)CC3)cs2)s1.[Na+]` [Example 7, Sodium; 3-[[4-(trans-4-tert-butyl-cyclohexyl)-thiazol-2-yl]-(5-methyl-thiophen-2-ylmethyl)-amino]-propionate], in series [1], the concentration giving a half-maximal response (EC50) amounted to 159 nM. In addition, in series [2], the “Stability in Liver Microsomes (% remaining after 1 hour incubation) Human” value was found to be 78%. In addition, the “Stability in Liver Microsomes (% remaining after 1 hour incubation) Monkey” value in [3] amounted to 67%. Further, the “Stability in Liver Microsomes (% remaining after 1 hour incubation) Dog” value in series [4] came to 66%. Moreover, the “Stability in Liver Microsomes (% remaining after 1 hour incubation) Rat” value in series [5] is 57%. In addition, the “Stability in Liver Microsomes (% remaining after 1 hour incubation) Mouse” value in series [6] came out at 68%. Also, in [7], the “increase of mean frequency of high-intensity lordosis postures, factor relative to saline” value is 3.5 and the “increase of mean number of solicitations, factor relative to saline” value was 6. Also, in series [7] (MT-II 1 mg/kg SC), the “increase of mean frequency of high-intensity lordosis postures, factor relative to MT-II” value was 3.2 and the “increase of mean number of solicitations, factor relative to MT-II” value turned out to be 2. In series [8] (setting [10]), the “effect on food intake, icv saline” value was “no significant effect” and the “effect on weight gain, icv saline” value is recorded as “no significant effect”. Further, the “cumulative weight gain over the entire period, Example 7 + icv AgRP” value in [8] (30 mg/kg oral gavage days 1, 2, 3, icv AgRP days 1 and 3, to day 5) is reported as “less than 15 grams”. Besides, in series [8] (setting [11]), the “effect on AgRP stimulated body weight gain” value is listed as “blocked” and the “effect on AgRP stimulated food intake” value was “blocked”. Further, the concentration at 2 h in series [9] (male, Sprague Dawley, plasma, po, 5 mg/kg, Plasma - 2 hours (ng/mL), 2 hour time point) was 6460 ng/mL. Further, in [9] (24 hour study), the “Brain - 24 hours AUC (h * ng/g)” value is “++++ (values above 20,000 h*ng/g)”.
